Data: patent publication EP0051687A1, “Maleimides and process for the preparation of same” (MITSUI TOATSU CHEMICALS, Inc., priority 1980, dated 1982)

Assay: Solubility in organic solvents at room temperature
Format: physicochemical

## CC(C)(c1ccc(O)cc1)c1ccc(N2C(=O)C=CC2=O)cc1 [2-(4'-hydroxyphenyl)-2-(4"-maleimidophenyl) propane]
Organic Solvent: Acetone
  Solubility of 2-(4'-hydroxyphenyl)-2-(4"-maleimidophenyl) propane (at room temperature ): 50 wt.% or higher
Organic Solvent: Dimethylformamide
  Solubility of 2-(4'-hydroxyphenyl)-2-(4"-maleimidophenyl) propane (at room temperature ): 50 wt.% or higher
Organic Solvent: Dioxane
  Solubility of 2-(4'-hydroxyphenyl)-2-(4"-maleimidophenyl) propane (at room temperature ): 36 wt.%
Organic Solvent: Ethanol
  Solubility of 2-(4'-hydroxyphenyl)-2-(4"-maleimidophenyl) propane (at room temperature ): 11 wt.%
Organic Solvent: Methanol
  Solubility of 2-(4'-hydroxyphenyl)-2-(4"-maleimidophenyl) propane (at room temperature ): 20 wt.%
Organic Solvent: Methyl ethyl ketone
  Solubility of 2-(4'-hydroxyphenyl)-2-(4"-maleimidophenyl) propane (at room temperature ): 46 wt.%
Organic Solvent: Tetrahydrofuran
  Solubility of 2-(4'-hydroxyphenyl)-2-(4"-maleimidophenyl) propane (at room temperature ): 50 wt.% or higher
